Patent US9174952B2, “Substituted 3-thiazoloamino-propionic acid derivatives and their use as pharmaceuticals” (SANOFI, priority 2011, dated 2015)
pIC50: −log10 of the molar value.

Target: T1, Recombinant human cathepsin A (Homo sapiens, UniProt P10619)
T1 construct: Recombinant human cathepsin A (residues 29-480, with a C-terminal 10-His tag); 10-His (C); purchased R&D Systems 1049-SE
T1 sequence (P10619 29-326 limits assumed): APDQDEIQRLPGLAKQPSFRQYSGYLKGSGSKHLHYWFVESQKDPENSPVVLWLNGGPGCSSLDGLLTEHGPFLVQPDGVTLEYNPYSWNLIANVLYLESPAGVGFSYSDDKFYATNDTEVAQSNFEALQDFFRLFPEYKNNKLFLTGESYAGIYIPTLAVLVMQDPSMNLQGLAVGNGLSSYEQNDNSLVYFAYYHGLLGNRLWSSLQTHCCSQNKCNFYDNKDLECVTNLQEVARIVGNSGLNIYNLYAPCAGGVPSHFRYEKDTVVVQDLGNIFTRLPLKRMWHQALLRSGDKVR
T1 sequence (P10619 327-480 limits assumed): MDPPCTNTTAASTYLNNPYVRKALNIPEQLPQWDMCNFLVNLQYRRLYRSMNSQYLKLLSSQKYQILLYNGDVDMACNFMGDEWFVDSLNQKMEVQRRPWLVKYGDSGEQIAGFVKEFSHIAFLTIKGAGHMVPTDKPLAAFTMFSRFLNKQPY
Assay: Cathepsin A inhibitory activity
Format: biochemical
Conditions: activated recombinant human cathepsin A 833 ng/ml, Bodipy FL-labeled bradykinin substrate 2 μM, pH 5.5, room temperature
Description: a) Cathepsin A Inhibitory Activity
Recombinant human cathepsin A (residues 29-480, with a C-terminal 10-His tag; R&D Systems, #1049-SE) was proteolytically activated with recombinant human cathepsin L (R&D Systems, #952-CY). Briefly, cathepsin A was incubated at 10 μg/ml with cathepsin L at 1 μg/ml in activation buffer (25 mM 2-(morpholin-4-yl)-ethanesulfonic acid (MES), pH 6.0, containing 5 mM dithiothreitol (DTT)) for 15 min at 37° C. Cathepsin L activity was then stopped by the addition of the cysteine protease inhibitor E-64 (N-(trans-epoxysuccinyl)-L-leucine-4-guanidinobutylamide; Sigma-Aldrich, # E3132; dissolved in activation buffer/DMSO) to a final concentration of 10 μM.
The activated cathepsin A was diluted in assay buffer (25 mM MES, pH 5.5, containing 5 mM DTT) and mixed with the test compound (dissolved in assay buffer containing (v/v) 3% DMSO) or, in the control experiments, with the vehicle in a multiple assay plate. After incubation for 15 min at room temperature, as substrate then bradykinin carrying an N-terminal ®Bodipy FL (4,4-difluoro-5,7-dimethyl-4-bora-3a,4a-diaza-s-indacene-3-propionyl) label (JPT Peptide Technologies GmbH; dissolved in assay buffer) was added to the mixture. The final concentration of cathepsin A was 833 ng/ml and the final concentration of labeled bradykinin 2 μM. After incubation for 15 min at room temperature the reaction was stopped by the addition of stop buffer (130 mM 2-(4-(2-hydroxy-ethyl)-piperazin-1-yl)-ethanesulfonic acid, pH 7.4, containing (v/v) 0.013% ®Triton X-100, 0.13% Coating Reagent 3 (Caliper Life Sciences), 6.5% DMSO and 20 μM ebelactone B (Sigma, # E0886)).
Uncleaved substrate and product were then separated by a microfluidic capillary electrophoresis on a LabChip® 3000 Drug Discovery System (12-Sipper-Chip; Caliper Life Sciences) and quantified by determination of the respective peak areas. Substrate turnover was calculated by dividing product peak area by the sum of substrate and product peak areas, and the enzyme activity and the inhibitory effect of the test compound thus quantified. From the percentage of inhibition of cathepsin A activity observed with the test compound at several concentrations, the inhibitory concentration IC50, i.e. the concentration which effects 50% inhibition of enzyme activity was, calculated.

| SMILES | pIC50 |
| --- | --- |
| O=C(N[C@@H](Cc1ccc(Cl)cc1)C(=O)O)c1csc(-c2ccccc2)n1 [Example 58, (S)-3-(4-Chloro-phenyl)-2-[(2-phenyl-thiazole-4-carbonyl)-amino]-propionic acid] | 4.66 |
| O=C(O)C[C@H](NC(=O)c1csc(-c2ccccc2F)n1)c1cccc(Cl)c1Cl [Example 15, (S)-3-(2,3-Dichloro-phenyl)-3-{[2-(2-fluoro-phenyl)-thiazole-4-carbonyl]-amino}-propionic acid] | 6.68 |
| Cc1cc(C(F)(F)F)n(-c2nc(C(=O)N[C@@H](CC(=O)O)c3ccccc3C)cs2)n1 [Example 9, (S)-3-{[2-(3-Methyl-5-trifluoromethyl-pyrazol-1-yl)-thiazole-4-carbonyl]-amino}-3-o-tolyl-propionic acid] | 5.44 |
| Cc1ccccc1-c1nc(C(=O)NC(CC(=O)O)Cc2ccccc2)cs1 (stereo not shown) [Example 133, 4-Phenyl-3-[(2-o-tolyl-thiazole-4-carbonyl)-amino]-butyric acid] | 5.47 |
| Cc1ccccc1-c1nc(C(=O)N[C@@H](CC(=O)O)c2cccc(Cl)c2)cs1 [Example 39, (S)-3-(3-Chloro-phenyl)-3-[(2-o-tolyl-thiazole-4-carbonyl)-amino]-propionic acid] | 6.09 |
| O=C(O)CC(Cc1ccccc1)NC(=O)c1csc(-c2ccc(Cl)cc2)n1 (stereo not shown) [Example 127, 3-{[2-(4-Chloro-phenyl)-thiazole-4-carbonyl]-amino}-4-phenyl-butyric acid] | 4.90 |
| O=C(O)C[C@H](NC(=O)c1csc(-c2ccccc2F)n1)c1ccccc1Cl [Example 30, (S)-3-(2-Chloro-phenyl)-3-{[2-(2-fluoro-phenyl)-thiazole-4-carbonyl]-amino}-propionic acid] | 6.42 |
| O=C(O)CC(Cc1ccccc1)NC(=O)c1csc(-c2cccc(Cl)c2)n1 (stereo not shown) [Example 125, 3-{[2-(3-Chloro-phenyl)-thiazole-4-carbonyl]-amino}-4-phenyl-butyric acid] | 5.04 |
| Cc1ccccc1-c1nc(C(=O)N[C@@H](CC(=O)O)c2ccccc2F)cs1 [Example 34, (S)-3-(2-Fluoro-phenyl)-3-[(2-o-tolyl-thiazole-4-carbonyl)-amino]-propionic acid] | 6.50 |
| O=C(O)C[C@H](NC(=O)c1nc(-c2ccccc2)cs1)c1ccc(Cl)cc1Cl [Example 96, (S)-3-(2,4-Dichloro-phenyl)-3-[(4-phenyl-thiazole-2-carbonyl)-amino]-propionic acid] | 6.60 |
| Cc1ccccc1-c1nc(C(=O)N[C@@H](Cc2ccc(Cl)cc2)C(=O)O)cs1 [Example 72, (S)-3-(4-Chloro-phenyl)-2-[(2-o-tolyl-thiazole-4-carbonyl)-amino]-propionic acid] | 4.78 |
| Cc1ccccc1-c1nc(C(=O)N[C@@H](CC(=O)O)c2ccccc2C(F)(F)F)cs1 [Example 61, (S)-3-[(2-o-Tolyl-thiazole-4-carbonyl)-amino]-3-(2-trifluoromethyl-phenyl)-propionic acid] | 6.17 |
| O=C(O)C[C@H](NC(=O)c1csc(-c2ccccc2)n1)c1cccc(F)c1 [Example 48, (S)-3-(3-Fluoro-phenyl)-3-[(2-phenyl-thiazole-4-carbonyl)-amino]-propionic acid] | 6.02 |
| COc1cccc([C@H](CC(=O)O)NC(=O)c2csc(-c3ccccc3)n2)c1OC [Example 18, (S)-3-(2,3-Dimethoxy-phenyl)-3-[(2-phenyl-thiazole-4-carbonyl)-amino]-propionic acid] | 6.30 |
| O=C(O)C[C@H](NC(=O)c1csc(-c2ccccc2)n1)c1ccccc1C(F)(F)F [Example 62, (S)-3-[(2-Phenyl-thiazole-4-carbonyl)-amino]-3-(2-trifluoromethyl-phenyl)-propionic acid] | 5.58 |
| O=C(O)C[C@H](NC(=O)c1nc(-c2ccccc2)cs1)c1ccc(C(F)(F)F)cc1 [Example 97, (S)-3-[(4-Phenyl-thiazole-2-carbonyl)-amino]-3-(4-trifluoromethyl-phenyl)-propionic acid] | 6.39 |

| SMILES | pIC50 |
| --- | --- |
| O=C(O)C[C@H](NC(=O)c1csc(-c2ccccc2F)n1)c1ccccc1 [Example 88, (S)-3-{[2-(2-Fluoro-phenyl)-thiazole-4-carbonyl]-amino}-3-phenyl-propionic acid] | 6.03 |
| Cc1ccc(-c2nc(C(=O)N[C@@H](CC(=O)O)c3ccccc3C)cs2)cc1 [Example 10, (S)-3-o-Tolyl-3-[(2-p-tolyl-thiazole-4-carbonyl)-amino]-propionic acid] | 6.73 |
| O=C(O)C[C@H](NC(=O)c1csc(-c2ccc(C(F)(F)F)cc2)n1)c1cccc(Cl)c1 [Example 46, (S)-3-(3-Chloro-phenyl)-3-{[2-(4-trifluoromethyl-phenyl)-thiazole-4-carbonyl]-amino}-propionic acid] | 4.98 |
| COc1cccc([C@H](CC(=O)O)NC(=O)c2csc(-c3cccc(Cl)c3)n2)c1OC [Example 90, (S)-3-{[2-(3-Chloro-phenyl)-thiazole-4-carbonyl]-amino}-3-(2,3-dimethoxy-phenyl)-propionic acid] | 5.86 |
| O=C(NCC(C(=O)O)c1ccccc1)c1csc(-c2cccc(Cl)c2Cl)n1 (stereo not shown) [Example 116, 3-{[2-(2,3-Dichloro-phenyl)-thiazole-4-carbonyl]-amino}-2-phenyl-propionic acid] | 5.11 |
| O=C(O)C[C@H](NC(=O)c1csc(-c2ccccc2Cl)n1)c1ccccc1C(F)(F)F [Example 77, (S)-3-{[2-(2-Chloro-phenyl)-thiazole-4-carbonyl]-amino}-3-(2-trifluoromethyl-phenyl)-propionic acid] | 6.15 |
| O=C(O)CC(Cc1ccccc1)NC(=O)c1csc(-c2cccc(Cl)c2Cl)n1 (stereo not shown) [Example 117, 3-{[2-(2,3-Dichloro-phenyl)-thiazole-4-carbonyl]-amino}-4-phenyl-butyric acid] | 5.56 |
| Cc1ccccc1-c1nc(C(=O)NCC(C(=O)O)c2ccccc2)cs1 (stereo not shown) [Example 114, 2-Phenyl-3-[(2-o-tolyl-thiazole-4-carbonyl)-amino]-propionic acid] | 5.15 |
| O=C(O)C[C@H](NC(=O)c1csc(-c2cccc(Cl)c2Cl)n1)c1ccccc1C(F)(F)F [Example 66, (S)-3-{[2-(2,3-Dichloro-phenyl)-thiazole-4-carbonyl]-amino}-3-(2-trifluoromethyl-phenyl)-propionic acid] | 6.21 |
| O=C(O)C[C@H](NC(=O)c1csc(-c2cccc(Cl)c2)n1)c1ccccc1C(F)(F)F [Example 93, (S)-3-{[2-(3-Chloro-phenyl)-thiazole-4-carbonyl]-amino}-3-(2-trifluoromethyl-phenyl)-propionic acid] | 4.98 |
| O=C(O)C[C@H](NC(=O)c1nc(-c2ccccc2)cs1)c1ccc(Cl)cc1 [Example 69, (S)-3-(4-Chloro-phenyl)-3-[(4-phenyl-thiazole-2-carbonyl)-amino]-propionic acid] | 6.20 |
| Cc1ccccc1[C@H](CC(=O)O)NC(=O)c1csc(-c2cnccn2)n1 [Example 8, (S)-3-[(2-Pyrazin-2-yl-thiazole-4-carbonyl)-amino]-3-o-tolyl-propionic acid] | 5.58 |
| O=C(O)CC(NC(=O)c1csc(-c2ccccc2F)n1)C1CCCCC1 (stereo not shown) [Example 131, 3-Cyclohexyl-3-{[2-(2-fluoro-phenyl)-thiazole-4-carbonyl]-amino}-propionic acid] | 5.84 |
| COc1cccc([C@H](CC(=O)O)NC(=O)c2csc(-c3ccc(Cl)cc3)n2)c1 [Example 106, (S)-3-{[2-(4-Chloro-phenyl)-thiazole-4-carbonyl]-amino}-3-(3-methoxy-phenyl)-propionic acid] | 4.76 |
| COc1cccc([C@H](CC(=O)O)NC(=O)c2csc(-c3ccccc3F)n2)c1OC [Example 19, (S)-3-(2,3-Dimethoxy-phenyl)-3-{[2-(2-fluoro-phenyl)-thiazole-4-carbonyl]-amino}-propionic acid] | 6.06 |
